# Laboratory results reported in patent US20040127472A1, “Use of anecortave acetate for the protection of visual acuity in patients with age related macular degeneration” (priority 2002, published 2004).
# Columns and labels:
# [1] = Preclinical drug levels after slow-release depot adjacent to the posterior scleral surface; format: in vivo; settings: data not shown
# [2] = molecular target: urokinase-like plasminogen activator (Homo sapiens, UniProt P00749); settings: cited from earlier work
# [3] = Clinical trial, safety evaluation (ophthalmic and physical examinations, blood and urine); format: in vivo, patients
# Excerpt: (§1) Clinical efficacy data is being obtained from evaluations of best-corrected logMAR visual acuity and standardized fluorescein angiograms. Clinical safety data obtained from general physical examinations, laboratory evaluations of blood and urine, and complete ophthalmic examinations, including indocyanine green angiography, continue to be periodically evaluated by the Independent Safety Committee overseeing this study. Clinical data from evaluations for safety and efficacy performed at Day 1-2, Week 2, Week 6, Month 3, and Month 6 following patient randomization and treatment are reported here.
# Following completion of the Month 6 visit by all patients, the accumulated safety data were evaluated by the Independent Safety Committee overseeing this study. […] The most common ocular changes reported were changes in lens opacity using the Lens Opacity Classification System (LOCS) II, and included reports of nuclear color, nuclear opalescence, cortical, and posterior subcapsular changes. Cataracts are a common intercurrent disorder in this patient population, and the changes seen were documented in all treatment groups and in contralateral (untreated) eyes. The cataractous changes reported were described as mild and typically unrelated to treatment. The second most common ocular change, a decrease in vision (defined as a decrease of ≧4 logMAR lines from the previous visit), is also a common problem in this patient population. These vision decreases occurred in all treatment groups and in the contralateral eye. Other ocular changes (occurring with a frequency greater than 5%) were ptosis, ocular pain, subconjunctival hemorrhage, ocular pruritis, ocular burning/stinging, pupil disorders, foreign body sensation, ocular hyperemia, and abnormal vision. These changes were reported in all four treatment groups, in both treated eyes and contralateral eyes, were characterized as primarily mild, were generally not attributed to treatment, and were transient in nature. The single report of an IOP increase (≧10 mmHg) from Baseline occurred in a patient treated with anecortave acetate 30 mg and was attributed to intercurrent illness. Of the ocular changes reported, those most frequently attributed to study treatment were ptosis, ocular pain, subconjunctival hemorrhage, ocular pruritis, and ocular burning/stinging. These treatment-related events were mostly mild, transient, and seen within all four treatment groups.
# The most common non-ocular changes from Baseline reported for this study were hypertension, peripheral edema, depression, and arthritis, none of which were attributed to treatment.
# [4] = molecular target: matrix metalloproteinase-3 (Homo sapiens, UniProt P08254); settings: cited from earlier work
# Chain of matrix metalloproteinase-3 (P08254 100-477, species assumed): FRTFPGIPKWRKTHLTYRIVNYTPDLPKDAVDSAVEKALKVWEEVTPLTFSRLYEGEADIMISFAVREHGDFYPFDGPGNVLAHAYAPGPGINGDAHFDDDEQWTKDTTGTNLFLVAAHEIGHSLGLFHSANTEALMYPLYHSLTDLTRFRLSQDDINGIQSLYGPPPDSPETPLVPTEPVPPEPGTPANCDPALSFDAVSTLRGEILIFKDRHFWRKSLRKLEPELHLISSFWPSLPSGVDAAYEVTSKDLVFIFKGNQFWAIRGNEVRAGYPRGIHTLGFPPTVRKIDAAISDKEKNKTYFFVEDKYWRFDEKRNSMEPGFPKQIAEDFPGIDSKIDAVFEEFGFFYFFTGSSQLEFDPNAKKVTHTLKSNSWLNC
# [5] = test system: subfoveal CNV lesion secondary to AMD; test: Clinical trial, CNV lesion surface areas from standardized fluorescein angiograms (DARC); format: in vivo, patients; settings: for inhibition of lesion growth versus placebo: Month 6
# Excerpt: (§2) This ongoing trial was initiated to compare the clinical efficacy of anecortave acetate versus placebo treatment for preservation (maintenance) of vision and inhibition of CNV lesion growth. Patients with a logMAR visual acuity of 0.3 (20/40 Snellen equivalent) to 1.2 (20/320 Snellen equivalent) and primary or recurrent subfoveal choroidal neovascularization (CNV) secondary to AMD with a lesion up to 30.48mm^2 (12 disc areas) in size were enrolled. At Baseline and follow-up visits, best-corrected logMAR visual acuity was obtained on all patients using guidelines previously established for the Early Treatment Diabetic Retinopathy Study. Patient lesion eligibility for this study was determined from standardized fluorescein angiograms at the Digital Angiography Reading Center (DARC) by certified Readers (trained retina specialists) prior to enrollment and treatment. The DARC also evaluated changes from Baseline in the fluorescein angiographic characteristics of the lesions in masked fashion. Each data point represents the average of at least two independent evaluations by DARC Readers. Because all angiographic data for this study is being collected using the same fimdus camera and digital camera systems and stored as uncompressed digital images, the actual lesion surface areas can be more closely approximated in mm^2 rather than requiring the disc area “best-fit” estimates previously used for film angiographic data.
# as §1
# The primary efficacy outcome for this ongoing study is the mean change from Baseline in best-corrected logMAR visual acuity. Secondary efficacy outcomes are: the percentage of patients with preservation or maintenance of vision (defined as loss of less than three logMAR lines [less than 15 logMAR letters] of visual acuity); the percentage of patients with clinically significant worsening of vision (defined as a loss of at least three logMAR lines [at least 15 logMAR letters] of visual acuity); the percentage of patients with severe vision loss (defined as a loss of at least six logMAR lines [at least 30 logMAR letters] of visual acuity); and changes in CNV lesion characteristics (defined as total lesion area, total CNV and total classic CNV).
# All efficacy analyses were based on the intent-to-treat principle. All patients received the medication to which they were assigned, and were analyzed accordingly. Last-observation-carry-forward was used to impute missing values. Baseline comparisons were tested using analysis of variance (for continuous outcomes) and Pearson's chi square (for binary outcomes). Changes from baseline in visual acuity and lesion parameters were tested in a repeated measures analysis of variance model with appropriate contrasts for the 6-month comparisons. Comparisons of binary outcomes at Month 6 were evaluated using Pearson's chi-square tests. All analyses of ocular outcomes are based on changes in the study (i.e., treated) eye.
# [6] = test system: plasminogen activator inhibitor 1; settings: cited from earlier work
# glucocorticoid receptor = molecular target: T1, glucocorticoid receptor (Homo sapiens, UniProt P04150); settings: preclinical data (refs 8,9); cited from earlier work
# T1 sequence (P04150 1-777): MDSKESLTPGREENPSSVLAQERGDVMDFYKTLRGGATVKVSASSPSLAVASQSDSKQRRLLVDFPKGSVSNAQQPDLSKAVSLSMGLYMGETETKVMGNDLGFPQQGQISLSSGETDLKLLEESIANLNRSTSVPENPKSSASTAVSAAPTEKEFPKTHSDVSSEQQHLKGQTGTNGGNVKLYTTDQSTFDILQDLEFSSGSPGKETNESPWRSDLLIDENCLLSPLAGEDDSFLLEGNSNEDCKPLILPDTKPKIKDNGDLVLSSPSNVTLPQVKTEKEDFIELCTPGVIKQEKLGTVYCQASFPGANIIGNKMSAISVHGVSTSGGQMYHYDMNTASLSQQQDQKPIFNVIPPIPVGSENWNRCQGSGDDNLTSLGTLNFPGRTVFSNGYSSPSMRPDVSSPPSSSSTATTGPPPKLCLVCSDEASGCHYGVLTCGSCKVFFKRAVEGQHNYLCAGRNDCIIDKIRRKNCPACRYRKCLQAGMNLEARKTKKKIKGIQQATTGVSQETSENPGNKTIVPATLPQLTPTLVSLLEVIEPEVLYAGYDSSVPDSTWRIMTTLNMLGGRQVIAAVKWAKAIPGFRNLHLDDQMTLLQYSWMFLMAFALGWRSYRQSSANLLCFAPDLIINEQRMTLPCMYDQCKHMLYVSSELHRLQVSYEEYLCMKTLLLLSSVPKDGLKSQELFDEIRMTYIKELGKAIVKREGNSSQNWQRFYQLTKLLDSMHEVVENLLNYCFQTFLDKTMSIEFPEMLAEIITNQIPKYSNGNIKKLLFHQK
# [7] = test system: patients with subfoveal choroidal neovascularization (CNV) secondary to AMD; test: Clinical trial, best-corrected logMAR visual acuity after a single posterior juxtascleral administration; format: in vivo; settings: for LogMAR Change 1 Line Improved, % of patients / LogMAR Change 1 Line Worsened, % of patients / LogMAR Change 2 Lines Worsened, % of patients / LogMAR Change No Change, % of patients / LogMAR Change ≧2 Lines Improved, % of patients / LogMAR Change ≧3 Lines Worsened (clinically significant vision loss), % of patients: Month 6 vs Baseline
# Excerpt: as §2
# The 128 patients in this double-masked, dose-response study were enrolled and treated between April 1999 and May 2001 by 18 participating sites in the US and EU. Prior to treatment, patients were enrolled and equally randomized to anecortave acetate sterile suspension for injection 30 mg (N=33), 15 mg (N=33), or 3 mg (N=32) or to placebo (vehicle, N=30). Masking of the clinical sites as to treatment group is being maintained in two ways. Study medication is masked by placing the treatment kits including study medication and supplies for the posterior juxtascleral administration in sealed opaque boxes identified by patient number only. The boxes were numbered sequentially at each clinical site and patients were assigned the next available sequential number upon enrollment. The randomization was built into the sequential numbering of the treatment kits and blocked within each site to maintain equal distribution across treatment assignments. Masking as to treatment group is also being maintained at each site by having an unmasked injecting investigator perform the treatments and a masked examining investigator perform the subsequent evaluations. Upon enrollment of each patient, anecortave acetate or placebo was administered behind the eye as a 0.5 mL posterior juxtascleral injection onto the outer surface of the sclera near the macula using a specially designed cannula. The cannula is described in commonly owned U.S. Pat. No. 6,413,245B1.
# as §1
# The primary efficacy outcome for this ongoing study is the mean change from Baseline in best-corrected logMAR visual acuity. […]
# [8] = 3 mg single administration, n = 32
# [9] = 15 mg single administration, n = 33
# [10] = 15 mg single administration, n = 33, listed as Anec Acet
# [11] = 30 mg single administration, n = 33
smiles,measurement,setting,value
"CC(=O)OCC(=O)[C@@]1(O)CC[C@H]2[C@@H]3CCC4=CC(=O)CC[C@]4(C)C3=CC[C@@]21C [anecortave acetate, 4,9(11)-pregnadien-17α,21-diol-3,20 dione-21 acetate]",duration of therapeutic drug levels in the adjacent choroid and retina,[1],up to 6 months
same,effect on urokinase-like plasminogen activator,[2],inhibits
same,reports of IOP increase (≧10 mmHg) from Baseline,"[3]; 30 mg, attributed to intercurrent illness",single report
same,"changes in blood chemistry, hematology, or urinalysis","[3]; all doses, 6 months",No treatment-related changes
same,safety evaluation by the Independent Safety Committee,"[3]; all doses, after Month 6 visit",no clinically relevant medication-related or administration-related safety concerns were identified
same,ocular corticosteroid side effects (elevated intraocular pressure or accelerated cataract progression),"[3]; clinical study, at least 6 months exposure",no clinical evidence of ocular corticosteroid side effects
same,effect on matrix metalloproteinase-3,[4],inhibits
same,inhibition of lesion growth versus placebo,[5]; 3 mg,trend favoring
same,"inhibition of total CNV surface area growth, percent change from Baseline, versus placebo","[5]; 15 mg, Month 6, p=0.0001",statistically superior to placebo treatment
same,"inhibition of total lesion surface area growth, percent change from Baseline, versus placebo","[5]; 15 mg, Month 6, p=0.0005",statistically superior to placebo treatment
same,"inhibition of total classic CNV surface area growth, percent change from Baseline, versus placebo","[5]; 15 mg, Month 6, p=0.0008",statistically superior to placebo treatment
same,inhibition of lesion growth versus placebo,[5]; 30 mg,trend favoring
same,effect on plasminogen activator inhibitor 1,[6],upregulates
same,corticosteroid activity,glucocorticoid receptor,no measurable corticosteroid activity
same,"LogMAR Change 1 Line Improved, % of patients",[7]; [8],0%
same,"LogMAR Change 1 Line Worsened, % of patients",[7]; [8],12.5%
same,"LogMAR Change 2 Lines Worsened, % of patients",[7]; [8],18.8%
same,"LogMAR Change No Change, % of patients",[7]; [8],37.5%
same,"LogMAR Change ≧2 Lines Improved, % of patients",[7]; [8],6%
same,"LogMAR Change ≧3 Lines Worsened (clinically significant vision loss), % of patients",[7]; [8],25.0%
same,"LogMAR Change ≧2 Lines Improved, % of patients","[7]; 3 mg single administration, n = 32, listed as Anec Acet",6.3%
same,"<6 Lines Worse, % of patients","[7]; 3 mg, Month 6",78.13%
same,"Severe Vision Loss, ≧6 Lines Worse, % of patients","[7]; 3 mg, Month 6",21.88%
same,"mean change at Month 6 from Baseline in logMAR visual acuity, versus placebo","[7]; 3 mg, statistical significance not achieved",Trends also favor treatment
same,average final logMAR value,"[7]; 15 mg single administration, Month 6 (20/125 Snellen equivalent; Baseline 0.73)",0.81 logMAR
same,"LogMAR Change 1 Line Improved, % of patients",[7]; [9],3.0%
same,"LogMAR Change 1 Line Worsened, % of patients",[7]; [9],12.1%
same,"LogMAR Change 2 Lines Worsened, % of patients",[7]; [9],30.3%
same,"LogMAR Change No Change, % of patients",[7]; [9],24.2%
same,"LogMAR Change ≧2 Lines Improved, % of patients",[7]; [9],18%
same,"LogMAR Change ≧3 Lines Worsened (clinically significant vision loss), % of patients",[7]; [9],12%
same,"LogMAR Change ≧2 Lines Improved, % of patients",[7]; [10],18.2%
same,"LogMAR Change ≧3 Lines Worsened (clinically significant vision loss), % of patients",[7]; [10],12.1%
same,mean change from Baseline logMAR visual acuity,"[7]; 15 mg single treatment, Month 6",+0.08 logMAR score
same,"<6 Lines Worse, % of patients","[7]; 15 mg, Month 6",96.97%
same,"Severe Vision Loss, ≧6 Lines Worse, % of patients","[7]; 15 mg, Month 6",3.03%
same,percentage of patients with preservation of vision (decrease of less than three logMAR lines from Baseline),"[7]; 15 mg, Month 6, overall analysis",88%
same,percentage of patients with preservation of vision (decrease of less than three logMAR lines from Baseline),"[7]; 15 mg, Month 6, subgroup with predominantly classic CNV lesion",92%
same,"mean change at Month 6 from Baseline in logMAR visual acuity, versus placebo","[7]; 15 mg, p=0.0032",statistically superior to placebo treatment
same,"LogMAR Change 1 Line Improved, % of patients",[7]; [11],12.1%
same,"LogMAR Change 1 Line Worsened, % of patients",[7]; [11],15.2%
same,"LogMAR Change 2 Lines Worsened, % of patients",[7]; [11],15.2%
same,"LogMAR Change No Change, % of patients",[7]; [11],30.3%
same,"LogMAR Change ≧2 Lines Improved, % of patients",[7]; [11],3%
same,"LogMAR Change ≧3 Lines Worsened (clinically significant vision loss), % of patients",[7]; [11],24.2%
same,"LogMAR Change ≧2 Lines Improved, % of patients","[7]; 30 mg single administration, n = 33, listed as Anec Acet",3.0%
same,"<6 Lines Worse, % of patients","[7]; 30 mg, Month 6",75.76%
same,"Severe Vision Loss, ≧6 Lines Worse, % of patients","[7]; 30 mg, Month 6",24.24%
same,"mean change at Month 6 from Baseline in logMAR visual acuity, versus placebo","[7]; 30 mg, statistical significance not achieved",Trends also favor treatment
